The values below come from patent US5198424A, “Functionally active selectin-derived peptides” (Board of Regents of the University of Oklahoma, priority 1992, dated 1993).

Ends that are not written are not given here.

Experiment [1] has as its target T1, GMP-140 (Homo sapiens, UniProt P16109).
T1 sequence (P16109 42-830): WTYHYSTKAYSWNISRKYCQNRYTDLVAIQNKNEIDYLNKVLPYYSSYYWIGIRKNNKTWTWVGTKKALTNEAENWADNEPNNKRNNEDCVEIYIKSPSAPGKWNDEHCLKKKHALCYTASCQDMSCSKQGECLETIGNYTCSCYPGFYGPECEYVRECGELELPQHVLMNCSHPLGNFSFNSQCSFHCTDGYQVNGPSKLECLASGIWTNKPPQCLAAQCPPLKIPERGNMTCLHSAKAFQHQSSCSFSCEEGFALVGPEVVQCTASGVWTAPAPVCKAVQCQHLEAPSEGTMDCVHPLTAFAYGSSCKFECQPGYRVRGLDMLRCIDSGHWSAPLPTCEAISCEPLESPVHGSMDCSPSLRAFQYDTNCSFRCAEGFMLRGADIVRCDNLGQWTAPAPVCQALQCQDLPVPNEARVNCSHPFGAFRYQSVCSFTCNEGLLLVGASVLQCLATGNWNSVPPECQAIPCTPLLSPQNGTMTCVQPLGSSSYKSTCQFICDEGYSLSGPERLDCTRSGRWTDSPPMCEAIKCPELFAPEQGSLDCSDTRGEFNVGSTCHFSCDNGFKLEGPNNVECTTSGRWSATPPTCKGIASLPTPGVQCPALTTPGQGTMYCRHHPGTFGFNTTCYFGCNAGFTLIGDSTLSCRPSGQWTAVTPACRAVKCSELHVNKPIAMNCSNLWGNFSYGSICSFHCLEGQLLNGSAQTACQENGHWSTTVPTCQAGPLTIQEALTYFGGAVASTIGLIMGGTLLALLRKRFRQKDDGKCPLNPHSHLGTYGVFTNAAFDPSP
The experiment in a line: ELISA of binding of biotinylated monoclonal antibodies G1, G2, G3 to immobilized GMP-140 with soluble peptide. On the set-up: from tissue; host or cells: outdated human platelet packs (platelet lysate). The settings on record: peptide 1.5 mM. The method, then: Based on competitive ELISAs with the purified protein, G1, G2, and G3 each recognize distinct or only partially overlapping epitopes. 1.5 mM peptide was added to biotinylated mAb at a concentration of 2.5 micrograms/ml, which were then added to the wells containing GMP-140, as described in example 1. Binding was measured by an ELISA with an avidin detection system.
The monoclonal antibodies were biotinylated as follows: to 0.5 ml of purified IgG antibody (1 mg/ml in PBS, pH 7.4) was added 50 μl of 3.2 mM N-hydroxysuccinimide biotin in dimethyl sulfoxide and 50 μl of 1 M NaHCO3. After a 2 hour incubation at room temperature in the dark, the reaction was stopped with 50 μl of 1 M NH4 Cl. The biotinylated antibody was then separated from other components by gel filtration on a PD-10 column equilibrated in PBS. The ELISA was performed as follows; all steps were performed at room temperature.
Biotinylated antibody (2.5 μg/ml) with or without 1.5 mM peptide was incubated with wells coated with GMP-140 as described in example 1. After a 2 hour incubation, the antibody was removed, the wells were washed, and 0.1 ml of horseradish peroxidase-conjugated stepavidin (Pierce), diluted 1:1000 in HBSS/HSA, was added for 30 min. The wells were then washed and 0.1 ml of peroxidase substrate (Pierce) was added for 15 min. The color reaction was read at 405 nm.

The target in experiment [2] is T1, GMP-140. The experiment in a line: Neutrophil adhesion to purified GMP-140 immobilized on plastic wells (myeloperoxidase readout). The experiment is classed as cell-based. On the set-up: from tissue; host or cells: outdated human platelet packs (platelet lysate). The source says:
Peptides were screened for their ability to inhibit neutrophil adhesion to purified GMP-140 immobilized on plastic wells, using the assay described by Geng, et al., Nature 343, 757-760 (1990).
Human neutrophils are isolated from heparinized whole blood by density gradient centrifugation on Mono-Poly resolving media, Flow Laboratories. Neutrophil suspensions are greater than 98% pure and greater than 95% viable by trypan blue exclusion. For adhesion assays, neutrophils are suspended at a concentration of 2×10^6 cells/ml in Hanks' balanced salt solution containing 1.26 mM Ca^2+ and 0.81 mM Mg^2+ (HBSS, Gibco) with 5 mg/ml human serum albumin (HBSS/HSA). Adhesion assays are conducted in triplicate in 96-well microtiter plates, Corning, incubated at 4° C. overnight with 50 microliters of various protein solutions.
GMP-140 is plated at 5 micrograms/ml and the control proteins: human serum albumin (Alb), platelet glycoprotein IIb/IIIa (IIb), von Willebrand factor (vWF), fibrinogen (FIB), thrombomodulin (TM), gelatin (GEL) or human serum (HS), are added at 50 micrograms/ml. All wells are blocked for 2 h at 22° C. with 300 microliters HBSS containing 10 mg/ml HSA, then washed three times with HBSS containing 0.1% Tween-20 and once with HBSS. Cells (2×10^5 per well were added to the wells and incubated at 22° C. for 20 min. The wells were then filled with HBSS/HSA, sealed with acetate tape (Dynatech), and centrifuged inverted at 150 g for 5 min. After discarding nonadherent cells and supernates, the contents of each well are solubilized with 200 microliters 0.5% hexadecyltrimethylammonium bromide, Sigma, in 50 mM potassium phosphate, pH 6.0, and assayed for myeloperoxidase activity, Ley, et al., Blood 73, 1324-1330 (1989). The number of cells bound was derived from a standard curve of myeloperoxidase activity versus numbers of cells. Under all assay conditions, the cells released less than 5% of total myeloperoxidase and lactate dehydrogenase. Results are presented in Table I. 100% adhesion is that seen in the presence of the C-terminal peptide (amino acid residues 761-777 of GMP-140) as a negative control; this value is the same as controls in which neither peptide nor antibody is added to the cells. Inhibition is read as a lower percent adhesion, so that a value of 5% mean that 95% of the specific adhesion was inhibited.
Peptides from the lectin-like domain of GMP-140 were assayed for their ability to inhibit adhesion of neutrophils to immobilized GMP-140 in the assay described in example 1. Concentrations tested ranged from 0.1 mM to 1.5 mM.

Experiment [3] relates to human neutrophils. In words: Binding of 125I[GMP-140] to human neutrophils. From the text: This receptor is believed to be a glycoprotein containing sialic acid and other oligosaccharides that are recognized by the lectin domain of GMP-140. Using the assay described in example 1, and an assay in which ^125 I[GMP-140] binds specifically, saturably and reversibly to human neutrophils, as described by Moore and McEver, Clin.Res. 38, 364A (1990), certain critical structural features of the ligand (or, perhaps more accurately, "counter-receptor") for GMP-140 on human neutrophils have been defined.

Experiment [4] addresses T1, GMP-140. The experiment in a line: Binding of stimulated platelets to neutrophils in the presence of Ca2+. The experiment is classed as cell-based. On the set-up: GMP-140 also mediates adhesion of neutrophils to stimulated platelets; endogenous in cells; host or cells: stimulated platelets.

Take RKNNKTWTWVGTKKALTNE [54-72]: the “% Binding of Biotinylated MAbs G1” value in experiment [1] (mAb G1 2.5 micrograms/ml) amounted to 106%. For the same molecule, in experiment [1] (mAb G2 2.5 micrograms/ml), the “% Binding of Biotinylated MAbs G2” value was found to be 125%. The “% Binding of Biotinylated MAbs G3” value in experiment [1] (mAb G3 2.5 micrograms/ml) was found to be 104%. Further, the “% Bound (neutrophils bound to immobilized GMP-140 in the presence of GMP-140-derived peptide)” value in experiment [2] (peptide 1.5 mM, cells bound with control C-terminal peptide 761-777 normalized to 100%) is listed as 15%.
In the case of “neuraminidase: neuraminidase purified from Vibrio cholera [reference compound]”, the “binding of 125I[GMP-140] to human neutrophils (in words)” value in experiment [3] is recorded as “abolished”. In addition, the “adhesion of neutrophils to immobilized GMP-140 after treatment of neutrophils (in words)” value in experiment [2] (neutrophils treated with the enzyme) is on record as “abolished”.

B1: GMP-140: granule membrane protein 140, isolated from human platelet lysates by immunoaffinity and ion-exchange chromatography (protein, UniProt P16109 42-830, looked up)
P-selectin: T1 sequence (P16109 42-830)
Regarding B1, the “binding of platelets to neutrophils” value in experiment [4] was “inhibited”.
